Measured values published in article PMC6099740, “Design, Synthesis and Biological Evaluation of 6,7-Disubstituted-4-phenoxyquinoline Derivatives Bearing Pyridazinone Moiety as c-Met Inhibitors” (Molecules : A Journal of Synthetic Chemistry and Natural …, 2018).
Entries after “also recorded” stand apart in the source; their conditions may differ.

Legend:
c-Met kinase [1] = molecular target: T1, c-Met kinase (Homo sapiens, UniProt P08581); parameters: method as in PMID 28384549; conditions: previous research; cited from earlier work
T1 sequence (P08581 25-1390): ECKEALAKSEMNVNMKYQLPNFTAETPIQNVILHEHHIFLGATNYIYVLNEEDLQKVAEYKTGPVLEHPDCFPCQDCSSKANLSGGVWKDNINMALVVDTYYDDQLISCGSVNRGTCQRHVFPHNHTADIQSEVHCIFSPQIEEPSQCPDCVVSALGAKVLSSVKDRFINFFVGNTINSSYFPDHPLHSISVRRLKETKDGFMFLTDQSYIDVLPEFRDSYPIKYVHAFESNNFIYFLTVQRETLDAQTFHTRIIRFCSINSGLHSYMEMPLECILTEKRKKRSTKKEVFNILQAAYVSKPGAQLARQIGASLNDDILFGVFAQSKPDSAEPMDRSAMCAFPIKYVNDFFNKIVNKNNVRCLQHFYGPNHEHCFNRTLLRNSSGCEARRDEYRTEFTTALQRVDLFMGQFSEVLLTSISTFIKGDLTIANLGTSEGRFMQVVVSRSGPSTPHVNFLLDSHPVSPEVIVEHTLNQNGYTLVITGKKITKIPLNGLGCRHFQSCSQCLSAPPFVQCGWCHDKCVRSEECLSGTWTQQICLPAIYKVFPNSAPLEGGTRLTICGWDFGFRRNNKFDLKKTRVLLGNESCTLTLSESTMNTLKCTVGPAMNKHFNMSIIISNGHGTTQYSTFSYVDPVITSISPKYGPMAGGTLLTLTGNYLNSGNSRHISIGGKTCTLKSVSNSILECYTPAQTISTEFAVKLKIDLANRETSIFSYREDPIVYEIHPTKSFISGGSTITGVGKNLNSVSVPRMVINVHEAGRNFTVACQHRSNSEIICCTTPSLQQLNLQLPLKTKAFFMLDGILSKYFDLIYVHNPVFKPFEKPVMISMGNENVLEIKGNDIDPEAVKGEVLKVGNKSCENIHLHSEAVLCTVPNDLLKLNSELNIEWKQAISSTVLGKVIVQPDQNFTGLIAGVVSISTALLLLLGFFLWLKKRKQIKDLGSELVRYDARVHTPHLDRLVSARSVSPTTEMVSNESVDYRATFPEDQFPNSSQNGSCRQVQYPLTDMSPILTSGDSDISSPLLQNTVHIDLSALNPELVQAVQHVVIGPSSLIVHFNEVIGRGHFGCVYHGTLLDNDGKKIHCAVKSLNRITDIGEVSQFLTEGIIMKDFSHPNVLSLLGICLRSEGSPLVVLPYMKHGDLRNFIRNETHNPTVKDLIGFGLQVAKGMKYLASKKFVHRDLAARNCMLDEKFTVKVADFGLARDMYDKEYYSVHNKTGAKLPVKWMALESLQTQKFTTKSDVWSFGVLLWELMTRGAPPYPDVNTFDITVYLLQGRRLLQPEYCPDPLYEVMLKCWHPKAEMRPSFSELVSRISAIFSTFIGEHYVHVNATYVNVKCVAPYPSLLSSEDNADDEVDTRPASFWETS

c-Met kinase [2] = molecular target: T1, c-Met kinase; assay: c-Met kinase inhibition assay (HTRF; mobility shift)
Procedure: All kinase assays were performed in 96-well plates in a 50 µL reaction volume. The kinase buffer contains 50 mM HEPES, pH 7.5, 10 mM MgCl2, 0.0015% Brij-35 and 2 mM DTT. The stop buffer contains 100 mM HEPES, pH 7.5, 0.015% Brij-35, 0.2% Coating Reagent 3 and 50 mM EDTA. Dilute the compounds to 500 µM by 100% DMSO, then transfer 10 µL of compound to a new 96-well plate as the intermediate plate, add 90 µL kinase buffer to each well. Transfer 5 µL of each well of the intermediate plate to 384-well plates. The following amounts of enzyme and substrate were used per well: kinase base buffer, FAM-labeled peptide, ATP and enzyme solution. Wells containing the substrate, enzyme, DMSO without compound were used as DMSO control. Wells containing just the substrate without enzyme were used as low control. Incubate at room temperature for 10 min. Add 10 µL peptide solution to each well. […] At last collect data on Caliper program and convert conversion values to inhibition values. Percent inhibition = (max − conversion)/(max − min) × 100. ‘max’ stands for DMSO control; ‘min’ stands for low control [20].

A549, HepG2, MCF-7 = assay: MTT cytotoxicity assay, range over the three cancer cell lines; assay type: cell-based; conditions: Homo sapiens; range over A549, HepG2 and MCF-7
Procedure: (§1) The results expressed as IC50 values were summarized in Table 1, and the values were the average of at least two independent experiments.
(§2) The cancer cell lines were cultured in minimum essential medium (MEM) supplement with 10% fetal bovine serum (FBS). Approximately 4 × 10^3 cells, suspended in MEM medium, were plated onto each well of a 96-well plate and incubated in 5% CO2 at 37 °C for 24 h. The test compounds at indicated final concentrations were added to the culture medium and the cell cultures were continued for 72 h. Fresh MTT was added to each well at a terminal concentration of 5 μg/mL and incubated with cells at 37 °C for 4 h. The formazan crystals were dissolved in 100 μL DMSO each well, and the absorbency at 492 nm (for absorbance of MTT formazan) and 630 nm (for the reference wavelength) was measured with the ELISA reader. All of the compounds were tested two times in each of the cell lines. The results expressed as inhibition rates or IC50 (half-maximal inhibitory concentration) were the averages of two determinations and calculated by using the Bacus Laboratories Incorporated Slide Scanner (Bliss) software (the Bacus Laboratories Inc. Slide Scanner (BLISS) system, Lombard, IL, USA)..

A549 cells = assay: MTT cytotoxicity assay, A549; assay type: cell-based; conditions: Homo sapiens, 72 h
Procedure: as §1
(§3) The cancer cell lines were cultured in minimum essential medium (MEM) supplement with 10% fetal bovine serum (FBS). […] The test compounds at indicated final concentrations were added to the culture medium and the cell cultures were continued for 72 h. […] All of the compounds were tested two times in each of the cell lines. The results expressed as inhibition rates or IC50 (half-maximal inhibitory concentration) were the averages of two determinations and calculated by using the Bacus Laboratories Incorporated Slide Scanner (Bliss) software (the Bacus Laboratories Inc. Slide Scanner (BLISS) system, Lombard, IL, USA)..

HepG2 cells [3] = assay: MTT cytotoxicity assay, HepG2; assay type: cell-based; conditions: Homo sapiens, 72 h
Procedure: as §1, §2

MCF-7 cells = assay: MTT cytotoxicity assay, MCF-7; assay type: cell-based; conditions: Homo sapiens, MCF7, 72 h
Procedure: as §1, §3

HepG2 cells [4] = assay: Acridine orange (AO) single staining, nuclear morphology; assay type: cell-based, human; conditions: 0.01 μM, 12 h
Procedure: Potential compound 53 was selected for validation and evaluation of inhibition of cell proliferation and induction of apoptosis in HepG2 cells. […] Moreover, from the results of the inverted fluorescence microscopy, it can be observed that the cells in the control group (Figure 3a) were full and the edge was clear, which was added without nothing.
The cancer cell lines were cultured in minimum essential medium (MEM) supplement with 10% fetal bovine serum (FBS). Approximately 2 × 10^4 cells, suspended in MEM medium, were plated onto each well of a 24-well plate and incubated in 5% CO2 at 37 °C for 24 h. Then the medium was removed, and 1 mL drug-free medium and 1mL medium with the test compound 7c at indicated final concentrations were added to each well in control group and test group respectively and the cell cultures were continued for 12 h. While the medium was removed, AO-PBS buffer was added to each well at a terminal concentration of 10 µg/mL and stained in dark for 10 min. Each well was washed with PBS buffer three times and observed under a fluorescence microscope.
Figure 3 The cell morphology of HepG2 cells of the control and test groups. (a) HepG2 cells treated without any compounds; (b) HepG2 cells were treated with 0.01 µM for 12 h; Changes of nuclear morphology were determined by AO staining.

IC50 (c-Met kinase [2]) [nM]	Structure (SMILES)	enzyme activity IC50 values (c-Met kinase [1])	IC50 (A549, HepG2, MCF-7) [nM]	IC50 (A549 cells) [nM]	IC50 (HepG2 cells [3]) [nM]	IC50 (MCF-7 cells) [nM]	Inhibition of proliferation and induction of apoptosis (AO staining) (HepG2 cells [4])
	Cc1cc(=O)n(-c2ccc(F)cc2)nc1C(=O)Nc1ccc(Oc2ccnc3[nH]ccc23)c(F)c1 [Compound 7]	in the nanomole level					
0.6	COc1cc2c(Oc3ccc(NC(=O)c4nn(-c5ccccc5)ccc4=O)cc3F)ccnc2cc1OCCCN1CCN(C)CC1 [Compound 53, N-(3-Fluoro-4-((6-methoxy-7-(3-(4-methylpiperazin-1-yl)propoxy)quinolin-4-yl)oxy)phenyl)-4-oxo-1-phenyl-1,4-dihydropyridazine-3-carboxamide]		2 to 1030	3 ± 1	490 ± 30	6 ± 1	significantly inhibited HepG2 cells proliferation and induced apoptosis; also recorded: could induce remarkable apoptosis of HepG2 cells
